Patent US10905762B2, “Targeted nanoparticle conjugates” (CASE WESTERN RESERVE UNIVERSITY, priority 2011, dated 2021)

Key:
EGFR = EGFR (Homo sapiens, UniProt P00533); settings: binding to the EGFR; read-out: dissociation constant; cited from earlier work
9L.E29 cells [1] = settings: free Pc 4, stated as known; cited from earlier work
glioma cancer cells = settings: stated as known; cited from earlier work
9L.E29 cells [2] = assay: Cell viability assay using Trypan blue; type: cell-based, rat; settings: 1 μM of Pc 4 and 1 J/cm^2 of laser power
Description: Cell viability assays using Trypan blue for EGFpep-Au NP-Pc 4 treated cells further illustrated this point (FIG. 4C), showing not only an increase in the number of dead cancer cells, but possibly different pathways of cell death.

YHWYGYTPQNVI [EGF peptide, YHWYGYTPQNVI-amide]
Kd (EGFR): 22 nM

phthalocyanine 4 [free Pc 4]
subcellular localization of Pc 4 (known) (9L.E29 cells [1]): localize mainly in mitochondria with some additional localization within lysosomes
localization of free Pc 4 (known) (glioma cancer cells): known to locate in the mitochondria
mode of cell death (Trypan blue staining) (9L.E29 cells [2]): caused most cancer cells to die very quickly
